In patent US20200163984A1, “USE OF ISOVALERYL SPIRAMYCIN I, II AND/OR III IN MANUFACTURING MEDICAMENT FOR TREATING AND/OR PREVENTING TUMOR, AND MEDICAMENT” (SHENYANG FUYANG PHARMACEUTICAL TECHNOLOGY CO., LTD., priority 2017, published 2020):
In brackets after ≈: the same amount, converted by molar mass. Where two headings read alike, the source gives them in different places.

How the values were obtained:
[1] = system: human bladder cancer cell T-24; conditions: T-24, MTT
Text: (§1) The purpose of the assay is to evaluate the in vitro cell proliferation inhibition or cytotoxic activity of a tested sample.
(§2) Human breast cancer cells MCF-7 and MDA-MB-231, human hepatoma cells HepG2, human non-small cell lung cancer cells A549, human large cell lung cancer cells H460 and H1299, human renal clear cell adenocarcinoma cell 786-0, human renal cell adenocarcinoma cell 769-P, human glioma cell U251, human glioblastoma cell A172, human tissue lymphoma cell U937, human cervical cancer cell HeLa, human prostate cancer cell PC3, human pancreatic cancer cell PANC-1, human esophageal cancer cell TE-1, human gastric adenocarcinoma cell SGC7901, human colon cancer cell HT-29, human promyelocytic leukemia cell HL-60, human thyroid cancer cell TPC-1, and human bladder cancer cell T-24.
(§3) The inhibition rate of the medicament on tumor cell growth is calculated according to the following formula:
(§4) Tumor cell growth inhibition rate (%)=[A492 (negative control)−A492 (dosing group)]/A492 (negative control)×100%
(§5) And the half-inhibitory concentration (IC50) of the sample is determined therefrom.

[2] = system: human thyroid cancer cell TPC-1; conditions: TPC-1, MTT
Text: as §1, §2, §3, §4, §5

[3] = system: transplanted tumor of human glioblastoma cell A172; conditions: for Tumor Volume (mm3) (d 1): d1
Protocol: Then cell concentration was adjusted to 1×10^7/ml with matrigel, then each nude mouse was inoculated subcutaneously with 0.2 ml of cells at its right armpit and recorded as the first day of inoculation. When the tumor grows to be greater than or equal to 100 mm^3, the mice were randomly divided into 11 groups with 6 mice in each group: a model group, a temozolomide group, […], […], […] Each group was continuously administered intragastrically for 30 days with a dose of 20 ml/kg. The mice were sacrificed the next day after drug withdrawal and the indicators were tested. The long diameter and short diameter of the tumor, and the body weight of each mouse were recorded every 3 days from drug administration to nude mouse sacrifice.
(§6) The body weight of the nude mice and the long diameter (a) and short diameter (b) of the transplanted tumor were measured every 3 days, and the tumor volume (v), relative tumor volume (RTV) and relative tumor proliferation rate (T/C) are calculated respectively according to the following formulas, wherein V=a×b^2/2; RTV=V/V0 (V0 is the tumor volume before administration, V is the tumor volume before sacrifice), and T/C (%)=treatment group RTV/model control group RTV×100%.
(§7) Each mouse was weighed and sacrificed. After the tumor was completely stripped off from the body of the mouse, the non-tumor tissues such as blood stains and fat were removed to weigh the tumor and calculate the tumor growth inhibition rate. The average tumor weight of each group of mice is used as an indicator of efficacy. Tumor growth inhibition rate (%)=(1−the average tumor weight of the treatment group/the average tumor weight of the model group)×100%.

[4] = system: transplanted tumor of HL60 cells; test: HL-60 transplanted tumor in nude mice
Protocol: HL-60 cells in a logarithmic growth phase were taken and subjected to a trypan blue exclusion experiment showing that the cell viability was more than 95%, then the cells were subjected to trypsinization, centrifugation, and supernatant removal. Then cell concentration was adjusted to 1×10^7/ml with matrigel, then each nude mouse was inoculated subcutaneously with 0.2 ml of cells at its right armpit and recorded as the first day of inoculation. When the tumor grows to be greater than or equal to 100 mm^3, the mice were randomly divided into 11 groups with 6 mice in each group: isovaleryl spiramycin I groups with doses of 25, 50 and 100 mg/kg, isovaleryl spiramycin II groups with doses of 25, 50 and 100 mg/kg, and isovaleryl spiramycin III groups with doses of 25, 50 and 100 mg/kg. Each group was continuously administered intragastrically for 30 days with a dose of 20 ml/kg. The mice were sacrificed the next day after drug withdrawal and the indicators were tested. The long diameter and short diameter of the tumor, and the weight of each mouse were recorded every 3 days from drug administration to nude mouse sacrifice.
as §6, §7

[5] = A172, high dose (100 mg/kg in method) i.g. 30 days
[6] = A172, low dose (25 mg/kg in method) i.g. 30 days
[7] = A172, medium dose (50 mg/kg in method) i.g. 30 days
[8] = HL-60, high dose (100 mg/kg in method) i.g. 30 days
[9] = HL-60, low dose (25 mg/kg in method) i.g. 30 days
[10] = HL-60, medium dose (50 mg/kg in method) i.g. 30 days

COC1C(OC(C)=O)CC(=O)OC(C)CC=CC=CC(OC2CCC(N(C)C)C(C)O2)C(C)CC(CC=O)C1OC1OC(C)C(OC2CC(C)(O)C(OC(=O)CC(C)C)C(C)O2)C(N(C)C)C1O (centres unmarked) [Isovaleryl spiramycin II, isovaleryl spiramycin II]
IC50 [1]: 39.85 ± 3.26 µg/mL (≈ 41.1 µM) | IC50 [2]: 45.37 ± 2.90 µg/mL (≈ 46.8 µM) | Relative Tumor Proliferation Rate (T/C) [3, 5]: 42.18% | tumor growth inhibition rate [3, 5]: 40.01% | Relative Tumor Proliferation Rate (T/C) [3, 6]: 74.24% | tumor growth inhibition rate [3, 6]: 10.85% | tumor volume and relative tumor volume compared with the model group ([3]; A172, low, medium and high doses, P<0.05): significantly lower | Relative Tumor Proliferation Rate (T/C) [3, 7]: 50.59% | tumor growth inhibition rate [3, 7]: 15.71% | Inhibition Rate (%) ([3]; A172 nude mice, 12.5 mg/kg): 10.85% | Relative Tumor Proliferation Rate (T/C) ([3]; A172 nude mice, 12.5 mg/kg): 74.24% | Relative Tumor Volume (RTV) ([3]; A172 nude mice, 12.5 mg/kg): 14.73 ± 1.33 | Tumor Weight ([3]; A172 nude mice, 12.5 mg/kg): 1.24 ± 0.12 g | Tumor Volume (mm3) (d 1) ([3]; A172 nude mice, 12.5 mg/kg): 123.39 ± 11.22 mm3 | Tumor Volume (mm3) (d30) ([3]; A172 nude mice, 12.5 mg/kg): 1525.41 ± 255.74 mm3 | Inhibition Rate (%) ([3]; A172 nude mice, 25 mg/kg): 15.71% | Relative Tumor Proliferation Rate (T/C) ([3]; A172 nude mice, 25 mg/kg): 50.59% | Relative Tumor Volume (RTV) ([3]; A172 nude mice, 25 mg/kg): 14.31 ± 0.98 | Tumor Weight ([3]; A172 nude mice, 25 mg/kg): 1.17 ± 0.10 g | Tumor Volume (mm3) (d 1) ([3]; A172 nude mice, 25 mg/kg): 115.96 ± 11.42 mm3 | Tumor Volume (mm3) (d30) ([3]; A172 nude mice, 25 mg/kg): 984.26 ± 197.97 mm3 | Inhibition Rate (%) ([3]; A172 nude mice, 50 mg/kg): 40.01% | Relative Tumor Proliferation Rate (T/C) ([3]; A172 nude mice, 50 mg/kg): 42.18% | Relative Tumor Volume (RTV) ([3]; A172 nude mice, 50 mg/kg): 12.88 ± 1.54 | Tumor Weight ([3]; A172 nude mice, 50 mg/kg): 0.84 ± 0.12 g | Tumor Volume (mm3) (d 1) ([3]; A172 nude mice, 50 mg/kg): 120.28 ± 10.53 mm3 | Tumor Volume (mm3) (d30) ([3]; A172 nude mice, 50 mg/kg): 851.14 ± 215.31 mm3 | mouse weight compared with the model group ([3]; mouse, in vivo): no significant changes | Body Weight (g) (d1) ([3]; mouse, in vivo, 12.5 mg/kg): 21.36 ± 0.67 g | Body Weight (g) (d30) ([3]; mouse, in vivo, 12.5 mg/kg): 21.36 ± 0.87 g | Body Weight (g) (d1) ([3]; mouse, in vivo, 25 mg/kg): 21.10 ± 0.62 g | Body Weight (g) (d30) ([3]; mouse, in vivo, 25 mg/kg): 21.30 ± 0.89 g | Body Weight (g) (d1) ([3]; mouse, in vivo, 50 mg/kg): 21.08 ± 0.74 g | Body Weight (g) (d30) ([3]; mouse, in vivo, 50 mg/kg): 20.97 ± 0.68 g | Relative Tumor Proliferation Rate (T/C) [4, 8]: 41.36% | tumor growth inhibition rate [4, 8]: 51.81% | Relative Tumor Proliferation Rate (T/C) [4, 9]: 75.39% | tumor growth inhibition rate [4, 9]: 15.92% | tumor volume and relative tumor volume compared with the model group ([4]; HL-60, low, medium and high doses, P<0.05): significantly lower | Relative Tumor Proliferation Rate (T/C) [4, 10]: 65.18% | tumor growth inhibition rate [4, 10]: 29.48% | Inhibition Rate (%) ([4]; dose 25 mg/kg): 15.92% | Relative Tumor Proliferation Rate (T/C) ([4]; dose 25 mg/kg): 75.39% | Relative Tumor Volume (RTV) ([4]; dose 25 mg/kg): 8.48 ± 1.37 | Tumor Weight ([4]; dose 25 mg/kg): 1.90 ± 0.33 g | Tumor Volume (mm3) (d 1) ([4]; dose 25 mg/kg, d 1): 189.51 ± 28.58 mm3 | Tumor Volume (mm3) (d30) ([4]; dose 25 mg/kg, d 30): 1596.76 ± 293.76 mm3 | Inhibition Rate (%) ([4]; dose 50 mg/kg): 29.48% | Relative Tumor Proliferation Rate (T/C) ([4]; dose 50 mg/kg): 65.18% | Relative Tumor Volume (RTV) ([4]; dose 50 mg/kg): 7.33 ± 2.36 | Tumor Weight ([4]; dose 50 mg/kg): 1.60 ± 0.45 g | Tumor Volume (mm3) (d 1) ([4]; dose 50 mg/kg, d 1): 184.06 ± 32.38 mm3 | Tumor Volume (mm3) (d30) ([4]; dose 50 mg/kg, d 30): 1344.04 ± 466.62 mm3 | Inhibition Rate (%) ([4]; dose 100 mg/kg): 51.81% | Relative Tumor Proliferation Rate (T/C) ([4]; dose 100 mg/kg): 41.36% | Relative Tumor Volume (RTV) ([4]; dose 100 mg/kg): 4.65 ± 1.77 | Tumor Weight ([4]; dose 100 mg/kg): 1.09 ± 0.34 g | Tumor Volume (mm3) (d 1) ([4]; dose 100 mg/kg, d 1): 184.80 ± 33.56 mm3 | Tumor Volume (mm3) (d30) ([4]; dose 100 mg/kg, d 30): 834.34 ± 308.27 mm3 | mouse weight compared with the model group ([4]; mouse, in vivo): no significant changes | Body Weight (g) (d1) ([4]; mouse, in vivo, 25 mg/kg): 20.78 ± 1.31 g | Body Weight (g) (d30) ([4]; mouse, in vivo, 25 mg/kg): 20.59 ± 1.54 g | Body Weight (g) (d1) ([4]; mouse, in vivo, 50 mg/kg): 21.01 ± 1.20 g | Body Weight (g) (d30) ([4]; mouse, in vivo, 50 mg/kg): 20.72 ± 1.29 g | Body Weight (g) (d1) ([4]; mouse, in vivo, 100 mg/kg): 20.65 ± 1.27 g | Body Weight (g) (d30) ([4]; mouse, in vivo, 100 mg/kg): 20.32 ± 1.55 g

O=P1(N(CCCl)CCCl)NCCCO1 (centres unmarked) [Cyclophosphamide, cyclophosphamide, reference compound]
Inhibition Rate (%) ([4]; dose 30 mg/kg): 70.30% | Relative Tumor Proliferation Rate (T/C) ([4]; dose 30 mg/kg): 24.69% | Relative Tumor Volume (RTV) ([4]; dose 30 mg/kg): 2.78 ± 1.89 | Tumor Weight ([4]; dose 30 mg/kg): 0.67 ± 0.30 g | Body Weight (g) (d1) ([4]; dose 30 mg/kg, d 1): 20.65 ± 1.47 g | Tumor Volume (mm3) (d 1) ([4]; dose 30 mg/kg, d 1): 180.63 ± 29.97 mm3 | Body Weight (g) (d30) ([4]; dose 30 mg/kg, d 30): 18.47 ± 0.91 g | Tumor Volume (mm3) (d30) ([4]; dose 30 mg/kg, d 30): 466.98 ± 255.88 mm3
